Series [1] has as its system Root-knot nematodes (Meloidogyne spp), juveniles (J2). Nature of the series: Nematocidal activity against root-knot nematodes, 24 well bioassay plate, percent mortality. Type of series: in vivo. Conditions: 70-100 J2 juveniles per well, 22±2° C., 70±5% RH, dead/inactive counted at 24, 48, 72 and 96 hours, read-out: Rating (% Mortality). How it is done: The compound to be tested (4 mg) was dissolved in 40 μl of DMSO to make 100,000 PPM concentration stock solution. The clear solution was obtained by vortexing. The nematode suspension (250 μl) having 70-100 juveniles (J2) of Root-knot nematodes Meloidogyne spp. pipetted out to each cell of 24 well bioassay plate. Sterile water (1 ml) was pipetted out in fresh 2.5 ml Eppendorf micro-centrifuge tubes. The desired concentration (500 ppm) of the compound was prepared by adding stock solution in 2.5 ml Eppendorf micro-centrifuge tubes. For each treatment 4 replications were maintained. The bioassay plates were incubated at 22±2° C. and 70±5% RH in humidity chambers.

Series [2] in a line: Stability studies: storage at room temperature and accelerated storage condition, purity estimated by HPLC. Type of series: physicochemical. The conditions noted are these: properly packed material; for purity estimated by HPLC, Day 14, Condition 54° C. ± 2° C. / purity estimated by HPLC, Day Zero, Condition 54° C. ± 2° C.: 54° C. ± 2° C. (accelerated storage). The text has this:
The compounds of present invention were stored under conditions as shown in below table [room temperature and on accelerated storage condition (ATS)] and the purity was estimated by HPLC. The properly packed material was subjected to the conditions mentioned in the table below.

Consider `N=C(N)NCCC[C@H](/N=C/c1ccccc1C(F)(F)F)C(=O)O` [Example 1, (E)-N^2-{[2-(trifluoromethyl)phenyl]methylidene}-L-arginine], for which the mortality (in general, the percentage killed) at 500 ppm in series [1] lay in the range of 70 to 100%.
As to `N=C(N)NCCC[C@H](/N=C/c1cccc(C(F)(F)F)c1)C(=O)O` [Example 2, (E)-N^2-{[3-(trifluoromethyl)phenyl]methylidene}-L-arginine], in series [2], the “purity estimated by HPLC, Day 14, Condition 25° C. ± 2° C.” value is 99.70; the “purity estimated by HPLC, Day 14, Condition 54° C. ± 2° C.” value was 99.55; the “purity estimated by HPLC, Day Zero, Condition 25° C. ± 2° C.” value was 99.71; the “purity estimated by HPLC, Day Zero, Condition 54° C. ± 2° C.” value was 99.60. Besides, the mortality at 500 ppm in series [1] lay within 70 to 100%.
As to `N=C(N)NCCC[C@H](/N=C/c1ccc(Cl)cc1O)C(=O)O` [Example 3, (E)-N^2-[(4-chloro-2-hydroxyphenyl)methylidene]-L-arginine], in series [1], the mortality at 500 ppm is 50 to 69%.
The same measure, in the same setting: under `N=C(N)NCCC[C@H](/N=C/c1c(O)cccc1Cl)C(=O)O` [Example 4, (E)-N^2-[(6-chloro-2-hydroxyphenyl)methylidene]-L-arginine] stands 50 to 69%.
Still for that read-out and setting: next, `N=C(N)NCCC[C@H](/N=C/c1cccc(F)c1O)C(=O)O` [Example 5, (E)-N^2-[(3-fluoro-2-hydroxyphenyl)methylidene]-L-arginine]: 70 to 100%.
Still for that read-out and setting: under `N=C(N)NCCC[C@H](/N=C/c1ccc(F)cc1O)C(=O)O` [Example 6, (E)-N^2-[(4-fluoro-2-hydroxyphenyl)methylidene]-L-arginine] stands 70 to 100%; under `N=C(N)NCCC[C@H](/N=C/c1cc(F)ccc1O)C(=O)O` [Example 7, (E)-N^2-[(5-fluoro-2-hydroxyphenyl)methylidene]-L-arginine], 70 to 100%.
On to `N=C(N)NCCC[C@H](/N=C/c1c(O)cccc1F)C(=O)O` [Example 8, (E)-N^2-[(6-fluoro-2-hydroxyphenyl)methylidene]-L-arginine], for which, in series [1], the mortality at 500 ppm lay within 70 to 100%.
Same read-out and setting: under `COc1cccc(/C=N/[C@@H](CCCNC(=N)N)C(=O)O)c1O` [Example 9, (E)-N^2-[(2-hydroxy-3-methoxyphenyl)methylidene]L-arginine] stands 0 to 49%; under `COc1ccc(O)c(/C=N/[C@@H](CCCNC(=N)N)C(=O)O)c1` [Example 10, (E)-N^2-[(2-hydroxy-5-methoxyphenyl)methylidene]-L-arginine], 50 to 69%.
As for `COc1cccc(O)c1/C=N/[C@@H](CCCNC(=N)N)C(=O)O` [Example 11, (E)-N^2-[(2-hydroxy-6-methoxyphenyl)methylidene]-L-arginine], in series [2], the “purity estimated by HPLC, Day 14, Condition 25° C. ± 2° C.” value is recorded as 99.00; the “purity estimated by HPLC, Day 14, Condition 54° C. ± 2° C.” value is recorded as 98.85; the “purity estimated by HPLC, Day Zero, Condition 25° C. ± 2° C.” value is recorded as 99.10; the “purity estimated by HPLC, Day Zero, Condition 54° C. ± 2° C.” value is reported as 99.20. Also, in series [1], the mortality at 500 ppm was in the range of 70 to 100%.
For the compound `Cc1cc(O)cc(O)c1/C=N/[C@@H](CCCNC(=N)N)C(=O)O` [Example 12, (E)-N^2-[(2,4-dihydroxy-6-methylphenyl)methylidene]-L-arginine], the mortality at 500 ppm in series [1] lay within 0 to 49%.
Still for that read-out and setting: under `COc1ccc(/C=N/[C@@H](CCCNC(=N)N)C(=O)O)c(OC)c1` [Example 13, (E)-N^2-[(2,4-dimethoxyphenyl)methylidene]-L-arginine] stands 0 to 49%; under `N=C(N)NCCC[C@H](/N=C/c1cc(OC(F)(F)F)ccc1O)C(=O)O` [Example 14, (E)-N^2-{[2-hydroxy-5-(trifluoromethoxy)phenyl]methylidene}-L-arginine], 50 to 69%; under `N=C(N)NCCC[C@H](/N=C/c1cc(F)cc(Cl)c1O)C(=O)O` [Example 15, (E)-N^2-[(3-chloro-5-fluoro-2-hydroxyphenyl)methylidene]-L-arginine], 0 to 49%.
Consider `COc1ccc(/C=N/[C@@H](CCCNC(=N)N)C(=O)O)cc1` [Example 16, (E)-N^2-[(4-methoxyphenyl)methylidene]-L-arginine], for which the mortality at 500 ppm in series [1] lay within 70 to 100%.
For `COc1ccc(/C=N/[C@@H](CCCNC(=N)N)C(=O)O)cc1O` [Example 17, (E)-N^2-[(3-hydroxy-4-methoxyphenyl)methylidene]-L-arginine], the mortality at 500 ppm in series [1] fell in the range of 0 to 49%.
The same measure, in the same setting: under `COc1ccc(/C=N/[C@@H](CCCNC(=N)N)C(=O)O)cc1Cl` [Example 18, (E)-N^2-[(3-chloro-4-methoxyphenyl)methylidene]-L-arginine] stands 50 to 69%; under `CSc1ccc(/C=N/[C@@H](CCCNC(=N)N)C(=O)O)cc1` [Example 19, (E)-N^2-{[4-(methylsulfanyl)phenyl]methylidene}-L-arginine], 50 to 69%.
`C=CCc1cc(/C=N/[C@@H](CCCNC(=N)N)C(=O)O)c(O)c(OC)c1` [Example 20, (E)-N^2-{[2-hydroxy-3-methoxy-5-(prop-2-en-1-yl)phenyl]methylidene}-L-arginine]: in series [1], the mortality at 500 ppm was 70 to 100%.
On the same count and under the same terms, under `C=CCc1cc(/C=N/[C@@H](CCCNC(=N)N)C(=O)O)c(OC)c(OC)c1` [Example 21, (E)-N^2-{[2,3-dimethoxy-5-(prop-2-en-1-yl)phenyl]methylidene}-L-arginine] stands 70 to 100%.
Consider `C=CCc1cccc(/C=N/[C@@H](CCCNC(=N)N)C(=O)O)c1O` [Example 22, (E)-N2-{[2-hydroxy-3-(prop-2-en-1-yl)phenyl]methylidene}-L-arginine], for which, in series [2], the “purity estimated by HPLC, Day 14, Condition 25° C. ± 2° C.” value is 99.50; the “purity estimated by HPLC, Day 14, Condition 54° C. ± 2° C.” value was 99.30; the “purity estimated by HPLC, Day Zero, Condition 25° C. ± 2° C.” value is recorded as 99.60; the “purity estimated by HPLC, Day Zero, Condition 54° C. ± 2° C.” value is on record as 99.63. Moreover, in series [1], the mortality at 500 ppm fell in the range of 70 to 100%.
Take `N=C(N)NCCC[C@H](/N=C/c1c[nH]c2ccccc12)C(=O)O` [Example 23, (E)-N^2-[(1H-indol-3-yl)methylidene]-L-arginine]: the mortality at 500 ppm in series [1] was in the range of 50 to 69%.
Take `N=C(N)NCCC[C@H](/N=C/c1ccc2c(c1)OCO2)C(=O)O` [Example 24, (E)-N^2-[(2H-1,3-benzodioxol-5-yl)methylidene]-L-arginine]: in series [2], the “purity estimated by HPLC, Day 14, Condition 25° C. ± 2° C.” value is listed as 98.80; the “purity estimated by HPLC, Day 14, Condition 54° C. ± 2° C.” value is 98.90; the “purity estimated by HPLC, Day Zero, Condition 25° C. ± 2° C.” value is recorded as 98.90; the “purity estimated by HPLC, Day Zero, Condition 54° C. ± 2° C.” value is 98.75. For the same compound, the mortality at 500 ppm in series [1] is 50 to 69%.
`N=C(N)NCCC[C@H](/N=C/c1ccco1)C(=O)O` [Example 25, (E)-N^2-[(furan-2-yl)methylidene]-L-arginine]: the mortality at 500 ppm in series [1] is 70 to 100%.
On to `Cc1ccc(/C=N/[C@@H](CCCNC(=N)N)C(=O)O)o1` [Example 26, (E)-N^2-[(5-methylfuran-2-yl)methylidene]-L-arginine], for which, in series [2], the “purity estimated by HPLC, Day 14, Condition 25° C. ± 2° C.” value is 99.10; the “purity estimated by HPLC, Day 14, Condition 54° C. ± 2° C.” value is reported as 99.00; the “purity estimated by HPLC, Day Zero, Condition 25° C. ± 2° C.” value is recorded as 99.20; the “purity estimated by HPLC, Day Zero, Condition 54° C. ± 2° C.” value was 99.00. Besides, in series [1], the mortality at 500 ppm was 70 to 100%.
Take `N=C(N)NCCC[C@H](/N=C/c1ccc(CO)o1)C(=O)O` [Example 27, (E)-N^2-{[5-(hydroxymethyl)furan-2-yl]methylidene}-L-arginine]: in series [1], the mortality at 500 ppm lay in the range of 50 to 69%.
The same measure, in the same setting: under `N=C(N)NCCC[C@H](/N=C/c1cccc2ccccc12)C(=O)O` [Example 28, (E)-N2-[(naphthalen-1-yl)methylidene]-L-arginine] stands 50 to 69%; under `N=C(N)NCCC[C@H](/N=C/c1cccnc1)C(=O)O` [Example 29, (E)-N2-[(pyridin-3-yl)methylidene]-L-arginine], 50 to 69%.
Take `N=C(N)NCCC[C@H](/N=C/c1ccc2ccccc2c1)C(=O)O` [Example 30, (E)-N2-[(naphthalen-2-yl)methylidene]-L-arginine]: in series [2], the “purity estimated by HPLC, Day 14, Condition 25° C. ± 2° C.” value is on record as 99.65; the “purity estimated by HPLC, Day 14, Condition 54° C. ± 2° C.” value is listed as 99.45; the “purity estimated by HPLC, Day Zero, Condition 25° C. ± 2° C.” value is reported as 99.70; the “purity estimated by HPLC, Day Zero, Condition 54° C. ± 2° C.” value is reported as 99.65. For the same compound, the mortality at 500 ppm in series [1] lay in the range of 70 to 100%.
As to `N=C(N)NCCC[C@H](/N=C/c1ccsc1)C(=O)O` [Example 31, (E)-N2-[(thiophen-3-yl)methylidene]-L-arginine], in series [1], the mortality at 500 ppm lay within 50 to 69%.
Same read-out and setting: under `C=CCc1cccc(/C=N/[C@@H](CCCNC(=N)N)C(=O)O)c1OC` [Example 32, (E)-N2-{[2-methoxy-3-(prop-2-en-1-yl)phenyl]methylidene}-L-arginine] stands 50 to 69%.
Same read-out and setting: under `COc1cc(/C=N/[C@@H](CCCNC(=N)N)C(=O)O)cc2c1OCO2` [Example 33, (E)-N2-[(7-methoxy-2H-1,3-benzodioxol-5-yl)methylidene]-L-arginine] stands 50 to 69%; under `N=C(N)NCCC[C@H](/N=C/c1cccc2c1OCO2)C(=O)O` [Example 34, (E)-N2-[(2H-1,3-benzodioxol-4-yl)methylidene]-L-arginine], 50 to 69%.

The values are drawn from US20260234101A1, “COMPOUNDS, THEIR COMPOSITION AND THEIR USE AS NEMATICIDES” (priority 2023, published 2026).
